Several values for one entry are separate records, joined by “and”; a condition that tells them apart may be missing. Equal entries are not always repeated. Peptide text beside a SMILES is read from it.
Columns and labels:
MCAO model rats [1] = assay: Therapeutic effect on MCAO model rats (cerebral infarction volume, TTC staining); details: rat, in vivo
Experimental: The focal cerebral ischemia-reperfusion model was prepared according to the reversible middle cerebral artery occlusion (MCAO) suture method proposed by Longa with modifications in view of the anatomical structure of the rat brain. The rats were anesthetized by intraperitoneal administration of 10% chloral hydrate at a dose of […]. After anesthetization, a cut was created at the cervical midline, and the common carotid artery (CCA), external carotid artery (ECA) and pterygopalatine artery were exposed. The head portion (0.5 cm) of a monofilament nylon fishing line (0.26 mm) was coated with paraffin and a mark was made at 20 mm. All rats were inserted through the right CCA incision, and the pterygopalatine artery was temporarily clamped to prevent mis-insertion. The length of the occlusion line was about 18-20 mm from the bifurcation of CCA depending on the animal's weight, thereby occluding middle cerebral artery on the right side. The skin was then sewed, and the tail end of the occlusion line was partially fixed to the skin. After a period of ischemia for 2 hours, the occlusion line was carefully pulled out to form a reperfusion. The procedure steps for the sham control were the same as the surgery group, except for insertion of a nylon fishing line. The body temperature was maintained at 37±0.5° C. during the ischemia period and 2 h after reperfusion.
The used animals were male adult SD rats (Vittalia) of SPF grade with body weight of 220-250 g.
No drug was administered to the normal group and the sham group.
The rats were sacrificed by decapitation after scoring. The brain tissues were quickly removed and placed in a refrigerator at −20° C. After 10 minutes, the tissues were placed in a room temperature environment. The brains were placed in a rat brain section mold. After the olfactory bulb, cerebellum and low brain stem were removed, the brains were coronally cut five times at 2 mm thickness as shown in the profile to obtain six continuous raw coronal slices. Then, the brain sections were quickly placed in a 5 ml solution containing 2% TTC, and incubated at 37° C. for 30 minutes in the dark, during which the brain sections were flipped once every 5 minutes. With the TTC staining, the normal tissue would be rose red, and the infarcted tissue would be unstained and retained white. Each group of brain sections was arranged neatly, and photographed. The photos were processed by an image analysis system software and statistically analyzed. The infarction area of each brain section was calculated, and multiplied by the thickness of each brain section (2 mm). The products of the infarction area of individual brain section multiplied by the thickness were summed to obtain the cerebral infarction volume for each animal. The volumes were expressed as percentages accounting for the cerebral hemisphere to eliminate the effects of cerebral edema.

MCAO model rats [2] = assay: HE staining for histological changes of rat brain after ischemia; type: in vivo; details: 10 mg/kg, 24 h after ischemia
Experimental: The rats in each group were decapitated at 24 h after ischemia, and the resultant brain was coronally sectioned near the optic chiasm with a thickness of about 4 mm. The sections were fixed with 10% formalin solution and dehydrated with alcohol with a concentration gradient from 70% to 100%. The sections were permeabilized twice in xylene, and embedded in paraffin. The paraffin block was carefully trimmed, and immobilized on a paraffin slicing machine, and sliced to sections with a thickness of 4 μm. The paraffin sections were completely unfolded, attached to a clean and dry glass slide, and stored in a refrigerator at 4° C. Conventional HE staining was performed, and the staining results were observed by light microscopy.

rats = assay: Acute toxicity test on rats; type: in vivo, rat; details: dose of 200 mg/kg body weight
Experimental: Acute toxicity tests were performed on rats.

Row | Compound | Mean of infarction volume percentage (%) (MCAO model rats [1]) | Mean of infarction volume percentage (%) (MCAO model rats [1]; 1 mg/kg) | Reduction of infarction volume percentage vs model group (MCAO model rats [1]; 1 mg/kg) | Mean of infarction volume percentage (%) (MCAO model rats [1]; 3 mg/kg) | Reduction of infarction volume percentage vs model group (MCAO model rats [1]; 3 mg/kg) | Mean of infarction volume percentage (%) (MCAO model rats [1]; 10 mg/kg) | pathological changes of brain tissue (HE staining) (MCAO model rats [2]; prophylactic administration) | pathological changes of brain tissue (HE staining) (MCAO model rats [2]; therapeutic administration) | acute toxicity (rats)
1 | CC[C@H](C)[C@H](NC(=O)[C@H](CO)NC(=O)[C@H](CO)NC(=O)[C@H](CC(C)C)NC(=O)[C@H](CCCCN)NC(=O)[C@H](CCC(=O)O)NC(=O)[C@H](Cc1ccc(O)cc1)NC(=O)[C@H](CCCNC(=N)N)NC(=O)[C@H](CCCNC(=N)N)NC(=O)[C@H](CCCNC(=N)N)NC(=O)[C@H](CCC(N)=O)NC(=O)[C@H](CCCNC(=N)N)NC(=O)[C@H](CCCNC(=N)N)NC(=O)[C@H](CCCCN)NC(=O)[C@H](CCCCN)NC(=O)[C@H](CCCNC(=N)N)NC(=O)CNC(=O)[C@@H](N)Cc1ccc(O)cc1)C(=O)N[C@@H](CCC(=O)O)C(=O)N[C@@H](CO)C(=O)N[C@@H](CC(=O)O)C(=O)N[C@H](C(=O)O)C(C)C [YE-NA-1] (H-YGRKKRRQRRRYEKLSSIESDV-OH) | 33.96% |  |  |  |  |  |  |  | 
2 | CC[C@H](C)[C@H](NC(=O)[C@H](CO)NC(=O)[C@H](CO)NC(=O)[C@H](CC(C)C)NC(=O)[C@H](CCCCN)NC(=O)[C@H](CCCNC(=N)N)NC(=O)[C@H](CCCNC(=N)N)NC(=O)[C@H](CCCNC(=N)N)NC(=O)[C@H](CCC(N)=O)NC(=O)[C@H](CCCNC(=N)N)NC(=O)[C@H](CCCNC(=N)N)NC(=O)[C@H](CCCCN)NC(=O)[C@H](CCCCN)NC(=O)[C@H](CCCNC(=N)N)NC(=O)CNC(=O)[C@@H](N)Cc1ccc(O)cc1)C(=O)N[C@@H](CCC(=O)O)C(=O)N[C@@H](CO)C(=O)N[C@@H](CC(=O)O)C(=O)N[C@H](C(=O)O)C(C)C [NA-1, reference compound] (H-YGRKKRRQRRRKLSSIESDV-OH) | 38.56% |  |  |  |  |  |  |  | 
3 | CC[C@H](C)[C@H](NC(=O)[C@H](CCC(=O)O)NC(=O)[C@@H](NC(=O)[C@H](CC(=O)O)NC(=O)[C@H](CC(C)C)NC(=O)[C@H](CC(C)C)NC(=O)[C@H](CCCCN)NC(=O)[C@H](CCC(=O)O)NC(=O)[C@H](Cc1ccc(O)cc1)NC(=O)[C@H](CCCNC(=N)N)NC(=O)[C@H](CCCNC(=N)N)NC(=O)[C@H](CCCNC(=N)N)NC(=O)[C@H](CCC(N)=O)NC(=O)[C@H](CCCNC(=N)N)NC(=O)[C@H](CCCNC(=N)N)NC(=O)[C@H](CCCCN)NC(=O)[C@H](CCCCN)NC(=O)[C@H](CCCNC(=N)N)NC(=O)CNC(=O)[C@@H](N)Cc1ccc(O)cc1)[C@@H](C)O)C(=O)O [P5] | 24.84% and 36.54% and 43.22% | 44.23% | 3.76% | 35.66% | 22.41% | 19.54% | significantly improved | significantly improved | no lethal effect and other obvious toxic side effects
